Assay results as given in patent US20210221848A1, “POLYMYXIN DERIVATIVES AND THEIR USE IN COMBINATION THERAPY TOGETHER WITH DIFFERENT ANTIBIOTICS” (priority 2014, published 2021).
Converted amounts (≈) assume the structure as drawn. Like-named read-outs stand apart in the source and are kept apart here. Bridge positions count the residues as written; N and C are the ends. Square brackets hold non-standard residues; d marks the D form. Peptide text beside a SMILES is read from it. * marks the point of attachment. aThr = C[C@H](O)[C@H](N)C(=O)O; X2 = CC(C)CN1CCNC[C@H]1C(=O)*; Dab = NCC[C@H](N)C(=O)O

Experiments:
[1] = test system: Pseudomonas aeruginosa ATCC 27853; format: in vivo
Experimental: Groups of 7 male neutropenic specific-pathogen-free CD-1 mice weighing 21.5-27.5 g were used. On Day 0, animals were infected with 0.04 mL inoculum by intranasal instillation into mouse nostrils and were kept in an upright position on a string rack for ˜10 min post-infection. […] At 2 h, the CFU count was determined from 3 mice and the remaining mice (7 per test compound groups) were treated with a subcutaneous injection of the drug at +2, 6 and 10 hr post-infection. Test compounds and the comparator polymyxin B were administered at four concentrations (2.6, 8.6, 17.2 and 25.8 mg/kg free base). The vehicle control group (7 mice) was treated with 0.9% saline for injection at 2, 6 and 10 h post-infection.
Sixteen hours after infection, the mice were euthanized humanely. The lungs of each animal were harvested, homogenized and quantitatively cultured onto CLED agar for CFU determination. Decrease of the total CFU compared to control counts at 16 h post-infection was determined for each dose group.
The in vivo efficacy of 4 compounds of the invention (D25, D36, D42 and D50) was evaluated in a mouse lung infection model of P. aeruginosa ATCC 27853. The model was setup as described above with the exception that groups of up to 8 mice were inoculated through intranasal instillation of ˜2.5×10^6 CFUs of P. aeruginosa isolate ATCC 27853 (1.0×10^5 CFU/lung). Test compounds were administered at two concentrations (equivalent to 4.3 and 17.2 mg/kg free base). Three dose levels of polymyxin B sulfate were used as comparator (equivalent to 4.3, 8.6 and 17.2 mg/kg free base).

[2] = test system: A. baumanii strains with elevated MICs to Polymyxin B; assay: MIC against strains with elevated MICs to Polymyxin B; format: cell-based, Acinetobacter baumannii; conditions: Table 6D; for MIC A. baumannii 053: strain 053, elevated MIC to Polymyxin B; for MIC A. baumannii 056: strain 056, elevated MIC to Polymyxin B; for MIC A. baumannii 068: strain 068, elevated MIC to Polymyxin B; for MIC A. baumannii 070: strain 070, elevated MIC to Polymyxin B
Summary of the method: (§1)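 Polymyxin B-resistant isolates were inoculated from 0.5 McFarland suspensions of 18-24 hour Mueller-Hinton agar colonies. Testing was done twice per compound, and results disagreeing by over 2-fold were discarded as non-valid. For compounds assayed several times, the modal MIC is given.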

E. coli [3] = conditions: absence of a second agent, Table 6B
[4] = test system: E. coli strains with elevated MICs to Polymyxin B; assay: MIC against strains with elevated MICs to Polymyxin B; format: cell-based, Escherichia coli; conditions: Table 6D; for MIC E. coli 058: strain 058, elevated MIC to Polymyxin B; for MIC E. coli 059: strain 059, elevated MIC to Polymyxin B; for MIC E. coli 060: strain 060, elevated MIC to Polymyxin B; for MIC E. coli 061: strain 061, elevated MIC to Polymyxin B
Summary of the method: as §1

[5] = test system: P. aeruginosa strains with elevated MICs to Polymyxin B; assay: as above; format: cell-based, Pseudomonas aeruginosa; conditions: Table 6D; for MIC P. aeruginosa 065: strain 065, elevated MIC to Polymyxin B; for MIC P. aeruginosa 066: strain 066, elevated MIC to Polymyxin B; for MIC P. aeruginosa 067: strain 067, elevated MIC to Polymyxin B
Summary of the method: as §1

K. pneumoniae [6] = conditions: for MIC, K. pneumoniae ATCC 4352 / MIC, K. pneumoniae ATCC BAA-2146: absence of a second agent, Table 6B
[7] = test system: K. pneumoniae strains with elevated MICs to Polymyxin B; assay: MIC against strains with elevated MICs to Polymyxin B; format: cell-based, Klebsiella pneumoniae; conditions: Table 6D; for MIC K. pneumoniae 062: strain 062, elevated MIC to Polymyxin B; for MIC K. pneumoniae 063: strain 063, elevated MIC to Polymyxin B; for MIC K. pneumoniae 064: strain 064, elevated MIC to Polymyxin B; for MIC K. pneumoniae 655: strain 655, elevated MIC to Polymyxin B
Summary of the method: as §1

A. baumannii [8] = conditions: absence of a second agent, Table 6B
P. aeruginosa [9] = conditions: absence of a second agent, Table 6B
HK-2 cell line = assay: In vitro renal cell toxicity assay (resazurin reduction)
Experimental: MICs were determined as described herein. HK-2 cell IC50 values were determined as described herein. Values are reported relative to Polymyxin B.

K. pneumoniae [10] = assay: MIC in 1:1 (wt:wt) combination with Rifampicin; format: cell-based, Klebsiella pneumoniae; conditions: 1:1 (wt:wt) with Rifampicin, total drug concentration
Experimental: (§2) The inoculum was prepared by making a direct suspension of isolated colonies (selected from an 18-24 hour Mueller-Hinton agar plate) adjusted to the 0.5 McFarland standard. […] The assays were performed in duplicate. […] In cases where the duplicate values varied by less than 2-fold, the lower of the two values is reported. If a variation of greater than 2-fold was observed, the assay was considered non-valid. Several of the compounds were subjected to multiple tests, and where this is the case, the MIC reflects the modal value obtained.
(§3) MIC values (microgram/mL) refer to the total drug concentration (i.e. test agent plus Rifampicin).

E. coli [11] = assay: MIC in 1:1 (wt:wt) combination with Rifampicin; format: cell-based, Escherichia coli; conditions: 1:1 (wt:wt) with Rifampicin, total drug concentration
Experimental: as §2, §3

P. aeruginosa [12] = assay: MIC in 1:1 (wt:wt) combination with Rifampicin; format: cell-based, Pseudomonas aeruginosa; conditions: 1:1 (wt:wt) with Rifampicin, total drug concentration
Experimental: as §2, §3

[13] = test system: Acinetobacter baumannii NCTC 13301; conditions: mouse thigh, 16 h model
A. baumannii [14] = assay: MIC in 1:1 (wt:wt) combination with Rifampicin; format: cell-based, Acinetobacter baumannii; conditions: A. baumannii 053; 1:1 (wt:wt) with Rifampicin; total drug concentration
Experimental: as §2, §3

[15] = mouse lungs, P. aeruginosa ATCC 27853, SC at 2, 6 and 10 h post-infection, 16 h infection model, 17.2 mg/kg/dose free base

Row | Compound | Mean log10 CFU reduction vs. control [1, 15] | MIC A. baumannii 053 [2] | MIC A. baumannii 056 [2] | MIC A. baumannii 068 [2] | MIC A. baumannii 070 [2] | MIC, E. coli ATCC 25922 (E. coli [3]) | MIC, E. coli NCTC 13441 (E. coli [3]) | MIC E. coli 058 [4] | MIC E. coli 059 [4] | MIC E. coli 060 [4] | MIC E. coli 061 [4] | MIC P. aeruginosa 065 [5] | MIC P. aeruginosa 066 [5] | MIC P. aeruginosa 067 [5] | MIC, K. pneumoniae ATCC 4352 (K. pneumoniae [6]) | MIC, K. pneumoniae ATCC BAA-2146 (K. pneumoniae [6]) | MIC K. pneumoniae 062 [7] | MIC K. pneumoniae 063 [7] | MIC K. pneumoniae 064 [7] | MIC K. pneumoniae 655 [7] | also measured
1 | 3(S)-3-aminomethyl-5- methyl hexanoyl L- Thr-L-Dap-polymyxin B heptapeptide [Example D42] | 5.34 log10 CFU | >256 micrograms/mL | 256 micrograms/mL | 16 micrograms/mL | 128 micrograms/mL | 0.25 micrograms/mL | 0.25 micrograms/mL | 8 micrograms/mL | 16 micrograms/mL | 16 micrograms/mL | 32 micrograms/mL | 4 micrograms/mL | 32 micrograms/mL | >256 micrograms/mL | 0.125 micrograms/mL | 0.5 micrograms/mL | >256 micrograms/mL | 64 micrograms/mL | 16 micrograms/mL | 64 micrograms/mL | MIC, A. baumannii ATCC BAA-747 (A. baumannii [8]): 0.25 micrograms/mL; MIC, A. baumannii NCTC 13424 (A. baumannii [8]): 0.5 micrograms/mL; MIC, P. aeruginosa ATCC 27853 (P. aeruginosa [9]): 0.25 micrograms/mL; MIC, P. aeruginosa CCUG 59347 (P. aeruginosa [9]): 0.5 micrograms/mL
2 | CC(C)C[C@@H]1NC(=O)[C@@H](Cc2ccccc2)NC(=O)[C@H](CCN)NC(=O)[C@@H](NC(=O)[C@H](CCN)NC(=O)[C@@H](NC(=O)[C@@H]2CNCCN2CC(C)C)[C@H](C)O)CCNC(=O)[C@H]([C@@H](C)O)NC(=O)[C@H](CCN)NC(=O)[C@H](CCN)NC1=O [Example D36, (S)-1-(2-methylpropyl)-piperazine-2-carbonyl polymyxin B nonapeptide] (X2-[aThr][Dab][Dab][Dab][dF]L[Dab][Dab]T; lactam 3-C) |  |  |  |  |  |  |  |  |  |  |  |  |  |  |  |  |  |  |  |  | Mean log10 CFU reduction vs. control ([1]; ATCC 27853, in vivo, sc, 17.2 mg/kg, 10 h): 5.30 log10 CFU; HK-2 IC50 rel to PMB (HK-2 cell line): 4.5; MIC (K. pneumoniae [6]): 0.25 µg/mL (≈ 0.221 µM)
3 | (trans-5-(2- methylpropyl) piperidine)-3-carbonyl polymyxin B nonapeptide [Example D50] | 5.29 log10 CFU | 128 micrograms/mL | 32 micrograms/mL | 8 micrograms/mL | 16 micrograms/mL | 0.06 micrograms/mL | 0.06 micrograms/mL | 4 micrograms/mL | 8 micrograms/mL | 4 micrograms/mL | 8 micrograms/mL | 6 micrograms/mL | 4 micrograms/mL | >256 micrograms/mL | 0.06 micrograms/mL | 0.125 micrograms/mL | 64 micrograms/mL | 16 micrograms/mL | 4 micrograms/mL | 16 micrograms/mL | MIC in 1:1 combination with rifampicin, K. pneumoniae 062 (K. pneumoniae [10]; K. pneumoniae 062): 1 microgram/mL; MIC in 1:1 combination with rifampicin, K. pneumoniae CCUG 59348 (K. pneumoniae [10]; K. pneumoniae CCUG 59348): ≤0.5 microgram/mL; MIC in 1:1 combination with rifampicin, E. coli 059 (E. coli [11]; E. coli 059): ≤0.5 microgram/mL; MIC in 1:1 combination with rifampicin, E. coli 060 (E. coli [11]; E. coli 060): ≤0.5 microgram/mL; MIC in 1:1 combination with rifampicin, E. coli ATCC 25922 (E. coli [11]; E. coli ATCC 25922): ≤0.5 microgram/mL; MIC in 1:1 combination with rifampicin, P. aeruginosa 063 (P. aeruginosa [12]; P. aeruginosa 063): 32 microgram/mL; MIC in 1:1 combination with rifampicin, P. aeruginosa 068 (P. aeruginosa [12]; P. aeruginosa 068): 1 microgram/mL; Mean log10 CFU reduction vs. control ([13]; 0.215 mg/kg/dose free base SC at 2, 6 and 10 h post-infection): 0.69 log10 CFU; Mean log10 CFU reduction vs. control ([13]; 0.86 mg/kg/dose free base SC at 2, 6 and 10 h post-infection): 4.74 log10 CFU; Mean log10 CFU reduction vs. control ([13]; 2.6 mg/kg/dose free base SC at 2, 6 and 10 h post-infection): 5.05 log10 CFU; Mean log10 CFU reduction vs. control ([13]; 8.6 mg/kg/dose free base SC at 2, 6 and 10 h post-infection): 5.79 log10 CFU; Mean log10 CFU reduction vs. control ([13]; 17.2 mg/kg/dose free base SC at 2, 6 and 10 h post-infection): 5.69 log10 CFU; MIC, A. baumannii ATCC BAA-747 (A. baumannii [8]): 0.25 micrograms/mL; MIC, A. baumannii NCTC 13424 (A. baumannii [8]): 0.25 micrograms/mL; MIC, P. aeruginosa ATCC 27853 (P. aeruginosa [9]): 0.5 micrograms/mL; MIC, P. aeruginosa CCUG 59347 (P. aeruginosa [9]): 1 micrograms/mL; MIC in 1:1 combination with rifampicin, A. baumannii 053 (A. baumannii [14]): ≤0.5 microgram/mL
